{
  "source": "ChEMBL document CHEMBL1141855",
  "about": "“Trypargine alkaloids from a previously undescribed Eudistoma sp. ascidian” (J Nat Prod, 1999)",
  "assay": "Toxicity in iv dosed mouse",
  "type": "organism-based",
  "conditions": "in vivo",
  "data": [
    {"compound": "N=C(N)NCCCC1NCCc2c1[nH]c1ccccc21", "note": "(stereo unspecified) [TRYPARGINE]", "values": [
      {"measurement": "LD50", "result": 16.9, "unit": "mg/kg"}
    ]}
  ]
}
